Bounds are passed on as bounds.

For data set [1] the following is noted: dosed either orally or directly into the colon of a mammal; cited from earlier work.
A short description of data set [2]: Flow characterization of dry powders and granulations (density, Carr, Hausner, Flodex). The class given is physicochemical. Particulars: ungranulated, no water. From the text: The flow of dry powders was characterized using a FLODEX™ Powder Flowability Index Test Instrument (Hanson Research Corporation, Chatsworth, Calif.). The instrument was equipped with a cylindrical metal reservoir, which holds the test powder prior to flow testing. The cylindrical reservoir has an inside diameter of 5.7 cm and a length of […]. The bottom end of the reservoir can be closed with removable metal discs. Each disc has a round orifice centered in the disc. Orifice diameters range from 4 mm to 10 mm in 1 mm increments, and from 10 mm to 34 mm in 2 mm increments. Prior to flow testing, the orifice is blocked. Powder is then placed over the blocked orifice. When the orifice is unblocked, powder can flow through the orifice under the force of gravity if the orifice diameter is sufficiently large. Powder that flows through small orifices is considered to have flow properties useful for tableting. For example, a Flodex measurement (Flodex) of less than about 24 mm is typically used for high-speed tableting operations at commercial scale. A Flodex less than about 20 mm is useful for high-speed tableting operations. A Flodex of 18 mm or less is considered especially useful for high throughput tableting operations.
The Flodex is determined by first gently filling the reservoir while the orifice at the bottom is blocked with approximately 70 cc of test powder, while avoiding severe piling, and without vibrating or tapping the powder bed. Next, the orifice is unblocked. This can be accomplished by opening a shutter that is supplied with the instrument. Alternatively, if a shutter is not used, the powder-filled reservoir fitted with a disc can be set on a dry, flat surface to block the orifice. Then, slowly and evenly, the reservoir is lifted to allow the powders to flow. In either procedure, if the powder flows through the orifice, a clear channel is left within the powder bed. […] The flow test is conducted with various orifice sizes until the minimum orifice size for good flow is identified, which is referred to as the Flodex.
The impact of the amount of water used during high shear wet granulation on the strength of granules was determined. Granulations containing either 98 wt-% compound (1), 1 wt-% METHOCELT™-E4M and 1 wt-% SLS, or 97 wt-% compound (1) and 3 wt-% METHOCEL™-E4M, were prepared using from 20 wt-% to 30 wt-% water, dried, and the granule strength measured by determining the air pressure at which the particles began to fracture using a Sympatec particle analyzer (QicPic/RODOS-L/VIBRI-L, Sympatec GmbH, Clausthal-Zellerfeld, DE).
The Main Blend contained 98 wt-% compound (1), 1 wt-% METHOCELT™-E4M, and 1 wt-% SLS. Blend D contained 90 wt-% granules blended with 8 wt-% METHOCEL™-K100M and 2 wt-% magnesium stearate, and Blend E contained 89 wt-% granules blended with 8 wt-% METHOCEL™-K100M and 3 wt-% magnesium stearate and were prepared as described in Example 4.

As to `CC(OC(=O)NCC1(CC(=O)O)CCCCC1)OC(=O)C(C)C` (stereo not drawn) [Compound (1), 1-([(α-Isobutanoyloxyethoxy)carbonyl]aminomethyl)-1-cyclohexane acetic acid], the bioavailability as gabapentin result in data set [1] is “high bioavailability as gabapentin”. Moreover, in data set [2], the “Bulk Density” value came out at 0.329 gm/mL, the “Carr Index” value is 27.0, the Flodex is recorded as greater than 34 mm and the “Hausner Ratio” value worked out at 1.37. Further, the “Tap Density” value in data set [2] was 0.450 gm/mL.

These data come from patent US20100226981A1, “ORAL DOSAGE FORMS HAVING A HIGH LOADING OF A GABAPENTIN PRODRUG” (XenoPort, Inc., priority 2009, published 2010).
